Results taken from US20110172147A1, “NEUROPEPTIDE-2 RECEPTOR (Y-2R) AGONISTS” (priority 2009, published 2011).
*1 amine or outer side, *2 acyl side, *3 side chain or, on linkers, in order; H or OH if unused. Where a SMILES comes first, the peptide text is derived from it. [ ]: non-standard residue; d: D form. The star is where a group is joined. MeO(CH2CH2O)23CH2CH2CO = COCCOCCOCCOCCOCCOCCOCCOCCOCCOCCOCCOCCOCCOCCOCCOCCOCCOCCOCCOCCOCCOCCOCCOCCC(=O)*; X1 = O=C(Cn1cnc2ccc(N3CCN([*:1])CC3)cc2c1=O)[*:2]; Arachidoyl = CCCCCCCCCCCCCCCCCCCC(=O)*; NMeR = CN[C@@H](CCCNC(=N)N)C(=O)O; Cit = NC(=O)NCCC[C@H](N)C(=O)O; Guanidino = N=C(N)N*

Legend:
Format in all cases: cell-based
Y4R = Y4R (Homo sapiens, UniProt P50391); assay: CaFlux Assay (FLIPR), Y4R
Chain of Y4R (P50391 whole entry): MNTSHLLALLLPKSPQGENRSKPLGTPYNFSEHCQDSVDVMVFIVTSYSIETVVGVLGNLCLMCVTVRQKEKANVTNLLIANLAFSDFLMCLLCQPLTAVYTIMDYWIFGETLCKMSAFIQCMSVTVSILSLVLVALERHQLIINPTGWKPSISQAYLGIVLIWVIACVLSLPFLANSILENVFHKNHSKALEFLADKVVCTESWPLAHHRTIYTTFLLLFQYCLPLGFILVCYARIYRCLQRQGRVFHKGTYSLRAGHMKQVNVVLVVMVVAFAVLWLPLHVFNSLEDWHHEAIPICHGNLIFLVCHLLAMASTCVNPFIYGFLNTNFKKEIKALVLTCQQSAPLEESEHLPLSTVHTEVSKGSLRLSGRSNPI

hNPY2R [1] = biological target: T1, hNPY2R (Homo sapiens, UniProt P49146); assay: cAMP Agonist Assay, HEK293/hNPY2R; design: expressed in transfected cells; host or cells: HEK293/hNPY2R (G418 selection)
T1 sequence (P49146 1-381): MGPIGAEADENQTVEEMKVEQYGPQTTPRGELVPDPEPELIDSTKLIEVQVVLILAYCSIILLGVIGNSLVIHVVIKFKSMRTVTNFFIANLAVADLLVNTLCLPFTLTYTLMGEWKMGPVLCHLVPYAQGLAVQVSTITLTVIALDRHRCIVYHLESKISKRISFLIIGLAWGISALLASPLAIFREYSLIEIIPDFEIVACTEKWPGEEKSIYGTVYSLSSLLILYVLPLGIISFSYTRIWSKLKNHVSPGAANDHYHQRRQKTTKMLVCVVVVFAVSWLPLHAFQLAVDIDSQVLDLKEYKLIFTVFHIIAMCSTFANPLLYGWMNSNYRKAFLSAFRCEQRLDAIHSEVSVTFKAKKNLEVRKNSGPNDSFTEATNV
Method in brief: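 HEK293/hNPY2R cells (10,000/well, overnight) stimulated 30 min at room temperature with compound plus 5 μM forskolin and 0.5 mM IBMX (1.1% DMSO final). Lysate cAMP measured by competitive chemiluminescent ELISA (AP conjugate, CSPD substrate); quadruplicates.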

Y1R = biological target: T2, Y1R (Homo sapiens, UniProt P25929); assay: CaFlux Assay (FLIPR), Y1R
T2 sequence (P25929 1-384): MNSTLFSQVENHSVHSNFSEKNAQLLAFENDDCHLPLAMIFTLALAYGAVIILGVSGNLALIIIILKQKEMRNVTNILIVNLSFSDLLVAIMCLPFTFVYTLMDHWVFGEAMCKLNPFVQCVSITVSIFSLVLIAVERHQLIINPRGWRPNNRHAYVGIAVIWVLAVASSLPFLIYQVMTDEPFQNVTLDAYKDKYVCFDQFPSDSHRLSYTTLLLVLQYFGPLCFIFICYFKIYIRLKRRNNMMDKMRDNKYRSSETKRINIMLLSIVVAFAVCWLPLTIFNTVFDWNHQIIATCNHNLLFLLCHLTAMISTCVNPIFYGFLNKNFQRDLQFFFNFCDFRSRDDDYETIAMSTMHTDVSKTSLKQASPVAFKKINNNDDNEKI

hNPY2R [2] = biological target: T1, hNPY2R; assay: CaFlux Assay (FLIPR), Y2R; design: expressed in transfected cells; host or cells: HEK-293 stably transfected with G protein chimera Gαqi9
Method in brief: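 Calcium flux read by FLIPR in HEK-293 clones co-expressing chimeric Gαqi9 and receptor; compounds in HBSS/20 mM HEPES/0.05% BSA. Baseline-subtracted peak fluorescence, monitored 100 s after addition, is reported relative to the positive control's maximal response.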

Y5R = biological target: T3, Y5R (Homo sapiens, UniProt Q15761); assay: CaFlux Assay (FLIPR), Y5R
T3 sequence (Q15761 1-445): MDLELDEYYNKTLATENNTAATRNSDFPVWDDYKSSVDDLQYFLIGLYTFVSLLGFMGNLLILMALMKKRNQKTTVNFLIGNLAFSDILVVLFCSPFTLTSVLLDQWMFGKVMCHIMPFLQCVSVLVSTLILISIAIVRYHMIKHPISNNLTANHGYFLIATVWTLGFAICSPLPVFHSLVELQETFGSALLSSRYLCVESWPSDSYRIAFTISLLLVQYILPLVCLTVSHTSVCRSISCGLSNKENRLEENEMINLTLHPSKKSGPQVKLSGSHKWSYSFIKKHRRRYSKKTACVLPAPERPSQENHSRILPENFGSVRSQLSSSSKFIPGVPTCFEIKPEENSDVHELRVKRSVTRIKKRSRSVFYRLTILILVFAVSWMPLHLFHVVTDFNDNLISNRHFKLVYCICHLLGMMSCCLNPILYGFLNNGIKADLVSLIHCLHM

Compound	EC50 (Y4R)	EC50 (hNPY2R [1])	EC50 (Y1R)	EC50 (hNPY2R [2])	EC50 (Y5R)
CCCCCCCCCCCCCCCCCCCC(=O)N[C@@H](CCC(=O)N[C@@H](CCC(=O)N[C@H](C(=O)N[C@@H](CCCCNC(=O)CCOCCOCCOCCOCCOCCOCCOCCOCCOCCOCCOCCOCCOCCOCCOCCOCCOCCOCCOCCOCCOCCOCCOCCOC)C(=O)N1CCN(c2ccc3ncn(CC(=O)N[C@@H](CCCNC(N)=O)C(=O)N[C@@H](Cc4c[nH]cn4)C(=O)N[C@@H](Cc4ccc(O)cc4)C(=O)N[C@@H](CC(C)C)C(=O)N[C@@H](CC(N)=O)C(=O)N[C@@H](Cc4c[nH]c5ccccc45)C(=O)N[C@H](C(=O)N[C@H](C(=O)N[C@@H](CCCNC(=N)N)C(=O)N[C@@H](CCC(N)=O)C(=O)N(C)[C@@H](CCCNC(=N)N)C(=O)N[C@@H](Cc4ccc(O)cc4)C(N)=O)[C@@H](C)O)C(C)C)c(=O)c3c2)CC1)[C@@H](C)CC)C(=O)O)C(=O)O [Example 61]	> 6000 nM	0.28 nM	> 6000 nM	0.243 nM	> 6000 nM
CCCCCCCCCCCCCCCCCCCC(=O)N[C@@H](CCC(=O)O)C(=O)N[C@@H](CCC(=O)O)C(=O)N[C@H](C(=O)N[C@@H](CCCCNC(=O)CCOCCOCCOCCOCCOCCOCCOCCOCCOCCOCCOCCOCCOCCOCCOCCOCCOCCOCCOCCOCCOCCOCCOCCOC)C(=O)N1CCN(c2ccc3ncn(CC(=O)N[C@@H](CCCNC(N)=O)C(=O)N[C@@H](Cc4c[nH]cn4)C(=O)N[C@@H](Cc4ccc(O)cc4)C(=O)N[C@@H](CC(C)C)C(=O)N[C@@H](CC(N)=O)C(=O)N[C@@H](Cc4c[nH]c5ccccc45)C(=O)N[C@H](C(=O)N[C@H](C(=O)N[C@@H](CCC(=O)NC(=N)N)C(=O)N[C@@H](CCC(N)=O)C(=O)N(C)[C@@H](CCCNC(=N)N)C(=O)N[C@@H](Cc4ccc(O)cc4)C(N)=O)[C@@H](C)O)C(C)C)c(=O)c3c2)CC1)[C@@H](C)CC [Example 51] (Arachidoyl-EEIK(MeO(CH2CH2O)23CH2CH2CO)[X1][Cit]HYLNWVTE(Guanidino)Q[NMeR]Y-NH2)	> 6000 nM	5.5 nM	> 6000 nM	9.4 nM	> 6000 nM
CCCCCCCCCCCCCCCC(=O)NCCCCCC(=O)NCCCC[C@H](NC(=O)[C@@H](NC(=O)COCCOCCOCCOCCOCCOC)[C@@H](C)CC)C(=O)N1CCN(c2ccc3ncn(CC(=O)N[C@@H](CCCNC(=N)N)C(=O)N[C@@H](Cc4c[nH]cn4)C(=O)N[C@@H](Cc4ccc(O)cc4)C(=O)N[C@@H](CC(C)C)C(=O)N[C@@H](CC(N)=O)C(=O)N[C@@H](Cc4c[nH]c5ccccc45)C(=O)N[C@H](C(=O)N[C@H](C(=O)N[C@@H](CCCNC(=N)N)C(=O)N[C@@H](CCC(N)=O)C(=O)N(C)[C@@H](CCCNC(=N)N)C(=O)N[C@@H](Cc4ccc(O)cc4)C(N)=O)[C@@H](C)O)C(C)C)c(=O)c3c2)CC1 [Example 7]	> 5000 nM	0.16 nM	> 5000 nM	0.044 nM	1130 nM
CCCCCCCCCCCCCCCC(=O)NCCCCCC(=O)NCCOCCOCCOCCOCCOCCOCCOCCOCCOCCOCCOCCOCCOCCOCCOCCOCCOCCOCCOCCOCCOCCOCCOCCOCCC(=O)NCCCC[C@H](NC(=O)[C@@H](NC(C)=O)[C@@H](C)CC)C(=O)N1CCN(c2ccc3ncn(CC(=O)N[C@@H](CCCNC(=N)N)C(=O)N[C@@H](Cc4c[nH]cn4)C(=O)N[C@@H](Cc4ccc(O)cc4)C(=O)N[C@@H](CC(C)C)C(=O)N[C@@H](CC(N)=O)C(=O)N[C@@H](Cc4c[nH]c5ccccc45)C(=O)N[C@H](C(=O)N[C@H](C(=O)N[C@@H](CCCNC(=N)N)C(=O)N[C@@H](CCC(N)=O)C(=O)N(C)[C@@H](CCCNC(=N)N)C(=O)N[C@@H](Cc4ccc(O)cc4)C(N)=O)[C@@H](C)O)C(C)C)c(=O)c3c2)CC1 [Example 39]	> 6000 nM	0.07 nM	> 6000 nM	0.038 nM	1950 nM
CCCCCCCCCCCCCCCC(=O)NCCCCCC(=O)NCCCC[C@H](NC(=O)[C@@H](NC(=O)CCOCCOCCOCCOCCOCCOCCOCCOCCOCCOCCOCCOCCOCCOCCOCCOCCOCCOCCOCCOCCOCCOCCOCCOC)[C@@H](C)CC)C(=O)N1CCN(c2ccc3ncn(CC(=O)N[C@@H](CCCNC(=N)N)C(=O)N[C@@H](Cc4c[nH]cn4)C(=O)N[C@@H](Cc4ccc(O)cc4)C(=O)N[C@@H](CC(C)C)C(=O)N[C@@H](CC(N)=O)C(=O)N[C@@H](Cc4c[nH]c5ccccc45)C(=O)N[C@H](C(=O)N[C@H](C(=O)N[C@@H](CCCNC(=N)N)C(=O)N[C@@H](CCC(N)=O)C(=O)N(C)[C@@H](CCCNC(=N)N)C(=O)N[C@@H](Cc4ccc(O)cc4)C(N)=O)[C@@H](C)O)C(C)C)c(=O)c3c2)CC1 [Example 11]	> 5000 nM	0.08 nM	> 5000 nM	0.058 nM	915 nM
CCCCCCCCCCCCCCCC(=O)NCCOCCNC(=O)CCC(=O)NCCCC[C@H](NC(=O)[C@@H](NC(=O)CCOCCOCCOCCOCCOCCOCCOCCOCCOCCOCCOCCOCCOCCOCCOCCOCCOCCOCCOCCOCCOCCOCCOCCOC)[C@@H](C)CC)C(=O)N1CCN(c2ccc3ncn(CC(=O)N[C@@H](CCCNC(N)=O)C(=O)N[C@@H](Cc4c[nH]cn4)C(=O)N[C@@H](Cc4ccc(O)cc4)C(=O)N[C@@H](CC(C)C)C(=O)N[C@@H](CC(N)=O)C(=O)N[C@@H](Cc4c[nH]c5ccccc45)C(=O)N[C@H](C(=O)N[C@H](C(=O)N[C@@H](CCCNC(=N)N)C(=O)N[C@@H](CCC(N)=O)C(=O)N(C)[C@@H](CCCNC(=N)N)C(=O)N[C@@H](Cc4ccc(O)cc4)C(N)=O)[C@@H](C)O)C(C)C)c(=O)c3c2)CC1 [Example 16]	> 5000 nM	0.09 nM	> 5000 nM	0.059 nM	1360 nM
CCCCCCCCCCCCCCCCCCCC(=O)N[C@@H](CCC(=O)O)C(=O)N[C@@H](CCC(=O)O)C(=O)N[C@H](C(=O)N[C@@H](CCCCNC(=O)CCOCCOCCOCCOCCOCCOCCOCCOCCOCCOCCOCCOCCOCCOCCOCCOCCOCCOCCOCCOCCOCCOCCOCCOC)C(=O)N1CCN(c2ccc3ncn(CC(=O)N[C@@H](CCCNC(=N)N)C(=O)N[C@@H](Cc4c[nH]cn4)C(=O)N[C@@H](Cc4ccc(O)cc4)C(=O)N[C@@H](CC(C)C)C(=O)N[C@@H](CC(N)=O)C(=O)N[C@@H](Cc4c[nH]c5ccccc45)C(=O)N[C@H](C(=O)N[C@H](C(=O)N[C@@H](CCCNC(=N)N)C(=O)N[C@@H](CCC(N)=O)C(=O)N(C)[C@@H](CCCNC(=N)N)C(=O)N[C@@H](Cc4ccc(O)cc4)C(N)=O)[C@@H](C)O)C(C)C)c(=O)c3c2)CC1)[C@@H](C)CC [Example 52]	> 9000 nM	0.2 nM	> 9000 nM	0.147 nM	4260 nM
CCCCCCCCCCCCCCCCCCCC(=O)N[C@@H](CCC(=O)O)C(=O)N[C@@H](CCC(=O)O)C(=O)N[C@H](C(=O)N[C@@H](CCCCNC(=O)CCOCCOCCOCCOCCOCCOCCOCCOCCOCCOCCOCCOC)C(=O)N1CCN(c2ccc3ncn(CC(=O)N[C@@H](CCCNC(=N)N)C(=O)N[C@@H](Cc4c[nH]cn4)C(=O)N[C@@H](Cc4ccc(O)cc4)C(=O)N[C@@H](CC(C)C)C(=O)N[C@@H](CC(N)=O)C(=O)N[C@@H](Cc4c[nH]c5ccccc45)C(=O)N[C@H](C(=O)N[C@H](C(=O)N[C@@H](CCCNC(=N)N)C(=O)N[C@@H](CCC(N)=O)C(=O)N(C)[C@@H](CCCNC(=N)N)C(=O)N[C@@H](Cc4ccc(O)cc4)C(N)=O)[C@@H](C)O)C(C)C)c(=O)c3c2)CC1)[C@@H](C)CC [Example 46]	> 9000 nM	0.29 nM	> 9000 nM	0.214 nM	4580 nM
